From US7230025B2, “Pyrazole derivatives” (Pfizer, Inc., priority 2002, dated 2007)
Like-named read-outs stand apart in the source and are kept apart here.

Target: T1, HIV-1 reverse transcriptase (Human immunodeficiency virus type 1 group M subtype B, UniProt P04585)
T1 construct: purified recombinant HIV-1 reverse transcriptase (RT, EC, 2.7.7.49) obtained by expression in Escherichia Coli; made in house; host or cells: Escherichia coli
Assay: Inhibition of HIV-1 Reverse Transcriptase Enzyme
Type: biochemical
Source text: The activity of the compounds of the invention as reverse transcriptase inhibitors may be measured using the following assay.
Inhibition of HIV-1 Reverse Transcriptase Enzyme
Using purified recombinant HIV-1 reverse transcriptase (RT, EC, 2.7.7.49) obtained by expression in Escherichia Coli, a 96-well plate assay system is established for assaying a large number of samples using either the Poly(rA)-oligo(dT) Reverse Transcriptase [3H]-SPA enzyme assay system (Amersham NK9020) or the [3H]-flashplate enzyme assay system (NEN-SMP 103) and following the manufacturer's recommendations. The compounds are dissolved in 100% DMSO and diluted with the appropriate buffer to a 5% final DMSO concentration. The inhibitory activity is expressed in percent inhibition relative to DMSO control.

Row | Compound | IC50 (purified recombinant HIV-1 RT expressed in Escherichia Coli, [3H]-SPA or [3H]-flashplate enzyme assay, 5% final DMSO, read-out: IC50) | IC50
1 | CCc1nn(C)c(Oc2ccccn2)c1Oc1cc(C#N)cc(C#N)c1 [Example 1, 5-[3-Ethyl-1-methyl-5-(pyridin-2-yloxy)-1H-pyrazol4-yloxy]-isophthalonitrile] | 5400 nM | –
2 | CCc1nn(C)c(Oc2ncc(Oc3ccc(OC)cc3)cn2)c1Oc1cc(C#N)cc(C#N)c1 [Example 6] | – | 391 nM
